Results: patent publication US20070060558A1 (PALUMED S.A., priority 2004, published 2007)
Values after ≈ are worked out from the molar mass of the structure shown. Read-outs that look alike come from different tables or passages of the source. Blank lines part the entries; values can stand above or below the molecule they belong to.

How the values were obtained:
[1] = tested on: S. pneumoniae PSSP CQI 201; assay: Antibacterial activity (MIC); format: cell-based, Streptococcus pneumoniae; conditions: Streptococcus pneumoniae
C. difficile CIP 104282 = assay: Antibacterial activity (MIC); format: cell-based, Clostridium difficile; conditions: Clostridioides difficile, CIP104282
[2] = tested on: Staphylococcus aureus MSSA CIP 4.83; assay: Antibacterial activity (MIC/MBC); format: cell-based; conditions: Staphylococcus aureus
S. pneumoniae PRSP = assay: Antibacterial activity (MIC), Table VII; format: cell-based; conditions: Streptococcus pneumoniae; S. pneumoniae PRSP (Table VII); read-out: MIC
[3] = tested on: E. faecalis VRE CIP 104676; assay: Antibacterial activity (MIC/MBC); format: cell-based, Enterococcus faecalis; conditions: Enterococcus faecalis; E. faecalis VRE CIP 104676; read-out: MIC
H. influenzae CIP 102514 = assay: Antibacterial activity (MIC/MBC); format: cell-based, Haemophilus influenzae; conditions: Haemophilus influenzae, CIP102514; H. influenzae CIP 102514; read-out: MIC
E. coli CIP 54127 = assay: Antibacterial activity (MIC); format: cell-based; conditions: Escherichia coli, CIP54127; E. coli CIP 54127; read-out: MIC
P. aeruginosa CIP 103467 = assay: Antibacterial activity (MIC); format: cell-based; conditions: Pseudomonas aeruginosa, CIP103467; P. aeruginosa CIP 103467; read-out: MIC
[4] = tested on: B. thuringiensis CIP 104676; assay: Antibacterial activity (MIC); format: cell-based; conditions: Bacillus thuringiensis, CIP104676; B. thuringiensis CIP 104676; read-out: MIC
[5] = tested on: S. aureus MRSA clinical isolate; assay: Antibacterial activity (MIC); format: cell-based, Staphylococcus aureus; conditions: Staphylococcus aureus
S. aureus MsrA PUL 5054 = assay: Antibacterial activity (MIC); format: cell-based; conditions: Staphylococcus aureus
[6] = tested on: S. aureus VISA CIP 106757; assay: Antibacterial activity (MIC); format: cell-based; conditions: Staphylococcus aureus
[7] = tested on: S. epidermidis MSCNS (D10); assay: Antibacterial activity (MIC); format: cell-based; conditions: Staphylococcus epidermidis
[8] = tested on: S. epidermidis MRCNS (E93); assay: Antibacterial activity (MIC); format: cell-based; conditions: Staphylococcus epidermidis
[9] = tested on: S. pneumoniae PRSP (CQR 162); assay: Antibacterial activity (MIC); format: cell-based; conditions: Streptococcus pneumoniae
S. pyogenes CIP 56.41T = assay: Antibacterial activity (MIC/MBC); format: cell-based, Streptococcus pyogenes; conditions: Streptococcus pyogenes, CIP56
[10] = tested on: E. faecium VRE VanA CIP107387; assay: Antibacterial activity (MIC); format: cell-based; conditions: Enterococcus faecium
[11] = tested on: E. faecalis VRE VanA CIP106996; assay: Antibacterial activity (MIC); format: cell-based; conditions: Enterococcus faecalis
[12] = tested on: E. faecalis VRE VanB CIP106998; assay: Antibacterial activity (MIC); format: cell-based; conditions: Enterococcus faecalis
[13] = tested on: Staphylococcus aureus MSSA 53.154; assay: Murine experimental septicaemia, in vivo efficacy; set-up: species or system mice; conditions: sc
Experimental: Experimental septicaemia was induced in mice as follows. Briefly, male Swiss OF1 mice (IFFA CREDO-Charles River) weighing 18 to 20 grams were infected intraperitoneally with 0.5 mL of a bacterial suspension containing 8.5×10^7 cfu of Staphylococcus aureus MSSA 53.154 (Institut Pasteur). The hybrid molecules were administered subcutaneously at 1 and 6 h post infection. Control and treatment groups at each dose were composed of seven mice. All the infected but untreated control mice died within 9 days. The 50% effective dose (ED50) values were calculated by a computerized program (GraphPad) from the survival rates on day 9 after infection.

[14] = S. pneumoniae PSSP CQI 201, read-out: MIC
[15] = C. difficile CIP 104282, read-out: MIC
[16] = S. aureus MSSA CIP 4.83, read-out: MIC

MIC [1, 14]: 1.25 µg/mL (≈ 3.71 µM)
MIC (C. difficile CIP 104282; [15]): 0.16 µg/mL (≈ 0.474 µM)
Structure (SMILES): CC(=O)NC[C@H]1CN(c2ccc(N3CCOCC3)c(F)c2)C(=O)O1 [Linezolid, reference compound]

MIC [2, 16]: 0.02 µg/mL
MIC (S. pneumoniae PRSP): 0.039 µg/mL
MIC [3]: 0.156 µg/mL
MIC (H. influenzae CIP 102514): 0.312 µg/mL
MIC (E. coli CIP 54127): 0.625 µg/mL
MIC (P. aeruginosa CIP 103467): > 5 µg/mL
MIC [4]: 0.156 µg/mL
Structure (SMILES): Cl.O=C(O)c1cn(C2CC2)c2cc(N3CCN(c4ccnc5c(Cl)cccc45)CC3)c(F)cc2c1=O [PA 1285, 7-[4-(8-Chloroquinolin-4-yl)-piperazin-1-yl]-1-cyclopropopyl-6-fluoro-4-oxo-1,4-dihydroquinoline-3-carboxylic acid hydrochloride salt]

Structure (SMILES): CN[C@H](CC(C)C)C(=O)N[C@H]1C(=O)N[C@@H](CC(N)=O)C(=O)N[C@H]2C(=O)N[C@H]3C(=O)N[C@H](C(=O)N[C@H](C(=O)O)c4cc(O)cc(O)c4-c4cc3ccc4O)[C@H](O)c3ccc(c(Cl)c3)Oc3cc2cc(c3O[C@@H]2O[C@H](CO)[C@@H](O)[C@H](O)[C@H]2O[C@H]2C[C@](C)(N)[C@H](O)[C@H](C)O2)Oc2ccc(cc2Cl)[C@H]1O [Vancomycin, reference compound]
MIC [2]: 0.78 µg/mL (≈ 0.538 µM)
MIC ([5]; MRSA): 0.78 µg/mL (≈ 0.538 µM)
MIC (S. aureus MsrA PUL 5054): 0.75 µg/mL (≈ 0.518 µM)
MIC [6]: 1.56 µg/mL (≈ 1.08 µM)
MIC [7]: 1.56 µg/mL (≈ 1.08 µM)
MIC [8]: 0.78 µg/mL (≈ 0.538 µM)
MIC [1]: 0.2 µg/mL (≈ 0.138 µM)
MIC ([9]; PRSP): 0.39 µg/mL (≈ 0.269 µM)
MIC (S. pyogenes CIP 56.41T): 0.2 µg/mL (≈ 0.138 µM)
MIC [10]: > 50 µg/mL
MIC [11]: > 50 µg/mL
MIC [12]: 25 µg/mL (≈ 17.3 µM)
MIC (C. difficile CIP 104282): 0.31 µg/mL (≈ 0.214 µM)
ED50 [13]: 0.16 mg/kg

Structure (SMILES): CN[C@H](CC(C)C)C(=O)N[C@H]1C(=O)N[C@@H](CC(N)=O)C(=O)N[C@H]2C(=O)N[C@H]3C(=O)N[C@H](C(=O)N[C@H](C(=O)O)c4cc(O)cc(O)c4-c4cc3ccc4O)[C@H](O)c3ccc(c(Cl)c3)Oc3cc2cc(c3OC2OC(CO)C(O)C(O)C2OC2CC(C)(NCCNc3ccnc4cc(Cl)ccc34)C(O)C(C)O2)Oc2ccc(cc2Cl)[C@H]1O (stereo partly shown) [PA 1159]
MIC [2, 16]: 0.2 µg/mL (≈ 0.121 µM)
MIC ([5]; S. aureus MRSA clinical isolate, read-out: MIC): 0.1 µg/mL (≈ 0.0605 µM)
MIC (S. aureus MsrA PUL 5054): < 0.045 µg/mL
MIC ([6]; S. aureus VISA CIP 106757, read-out: MIC): 0.2 µg/mL (≈ 0.121 µM)
MIC ([7]; S. epidermidis MSCNS (D10), read-out: MIC): 0.2 µg/mL (≈ 0.121 µM)
MIC ([8]; S. epidermidis MRCNS (E93), read-out: MIC): 0.05 µg/mL (≈ 0.0302 µM)
MIC [1, 14]: 0.006 µg/mL (≈ 0.00363 µM)
MIC ([9]; S. pneumoniae PRSP (CQR 162), read-out: MIC): 0.025 µg/mL (≈ 0.0151 µM)
MIC (S. pyogenes CIP 56.41T; S. pyogenes CIP 56.41T, read-out: MIC): 0.125 µg/mL (≈ 0.0756 µM)
MIC ([10]; E. faecium VRE VanA CIP107387, read-out: MIC): 25 µg/mL (≈ 15.1 µM)
MIC ([11]; E. faecalis VRE VanA CIP106996, read-out: MIC): 1.56 µg/mL (≈ 0.943 µM)
MIC ([12]; E. faecalis VRE VanB CIP106998, read-out: MIC): 12.5 µg/mL (≈ 7.56 µM)
MIC (C. difficile CIP 104282; [15]): 0.16 µg/mL (≈ 0.0967 µM)
ED50 ([13]; mice, subcutaneously at 1 and 6 h post infection, survival on day 9, hybrid molecules formulated in water as their bis(hydrochloride) salt, read-out: ED50): 0.37 mg/kg
